The source of these data is patent US10894785B2, “Piperidine derivatives for use in the treatment of pancreatic cancer” (CENTRE HOSPITALIER UNIVERSITAIRE VAUDOIS CHUV, priority 2016, dated 2021).

Molecules are shown by their SMILES.

Data set [1] is described as follows: Pharmacokinetics after intraperitoneal administration in female SCID mice (plasma, LC-MS/MS, non compartmental analysis). Conditions: 20 mg/kg IP; for CL: CL calculated as dose/AUC; for Percentage of extrapolated AUC from T6 h to infinity / T1/2α / T1/2β / half-lives in the second phase (6 h→24 h) compared with FK866 / Cmax / Tmax / AUC(0-inf) / AUC(0-t): plasma; for Percentage of extrapolated AUC from T6 h to infinity: relative to AUC0-inf; for T1/2α: t½α (0 -> 6 h); for T1/2β: t½β (6 -> 24 h); for half-lives in the second phase (6 h→24 h) compared with FK866: versus FK866; for Cmax / Tmax / AUC(0-inf) / AUC(0-t): mouse; for AUC(0-inf): log-trapezoidal rule, extrapolated to infinity; for AUC(0-t): read-out: AUC0-8 h. The data set is classed as in vivo. Here is the method:
The pharmacokinetics parameters of FK866, FE1199, VAL22-2 and MPM07 were determined following intraperitoneal administration (IP) in female SCID mice.
• SCID (Severe Combined ImmunoDeficiency) mice female total 144 • 25 mM in DMSO (dimethylsulfoxyde) of each test drug • Saline solution (0.9%)
Test drugs were dissolved in saline solution at 20 mg/ml. All dosing solutions were controlled by HPLC (High-Performance Liquid Chromatography) analysis. Mouse weight is estimated around 20 g.
Three mice per time point were used in each group.
Blood samples were collected on citrate at 10 min, 30 min, 1 h, 2 h, 4 h, 6 h, 8 h and 24 hours after drug administration. Following centrifugation, resulting plasma was stored at […] pending bioanalysis. Samples were analyzed by LC-MS/MS (Liquid chromatography tandem-mass spectrometry); the lower limit of quantification achieved was between 3 and 12 nM depending on drug. Non compartmental pharmacokinetic analysis was performed on plasma concentration data.

The test system of data set [2] is pancreatic ductal adenocarcinoma (Panc-1). In words: Anti-tumor activity on Panc-1: cell viability by sulforhodamine or MTT assay. The data set is classed as cell-based. Conditions: Homo sapiens, Panc-1 cells, 96 hours treatment, 0.001-1000 nM. How it is done:
The compounds according to the present invention were evaluated for their anti-tumor activities on pancreatic ductal adenocarcinoma (Panc-1). To this end, 0.5×10^6 human malignant cells were treated with various concentrations (0.001-1000 nM) for 96 hours of FK866 or the compounds according to the present invention. Subsequently cell viability was determined using either sulforhodamine assays as described in Caffa I, et al. (Oncotarget. 2015 May 20; 6(14):11820-32) or MTT assays. Sulforhodamine B is a dye able that binds to cellular proteins. […] For MTT assays, human malignant cells were plated in triplicate on 96-well plates and treated as mentioned above. After 96 hours of incubation, 15 μL of dye solution was added to each well and cells were incubated for an additional 4 hours. Stop solution (100 μL/well) was added for 1 hour and the absorbance was read at 570 nm on a spectrophotometer. To confirm whether the cytotoxicity exerted by these compounds involves programmed cell death, drug-induced cell death was evaluated using annexin V and 7AAD double staining as described by the manufacturer for assessing apoptosis or autophagic-cell death using a Beckman Coulter Cytomics Gallios flow cytometer. Dead cells were identified as annexinV+ and/or 7AAD+. GraphPad Prism version 7.00 (GraphPad Software, San Diego, Calif.) was used for IC50 calculation.

Take `N#C/N=C(\NC/C=C/CCC1CCN(C(=O)c2ccco2)CC1)Nc1ccncc1` [FEI-199, (E)-2-Cyano-1-((E)-5-(1-(furan-2-carbonyl)piperidin-4-yl)pent-2-en-1-yl)-3-(pyridin-4-yl)guanidine]: in data set [1], the CL is given as 38.3 mL/h, the “Percentage of extrapolated AUC from T6 h to infinity” value (shortened to “Percentage of extrapolated AUC”) is 0.5%, the T1/2α was determined as 18.6 min and the T1/2β came out at 606.6 min. For the same compound, in data set [1], the “half-lives in the second phase (6 h→24 h) compared with FK866” value was “improved and longer half-lives”; the concentration peaked (Cmax) at 12100 ng/mL; the time to peak (Tmax) came out at 10 min; the AUC(0-inf) is 5230 ng·h/mL. The AUC(0-t) in data set [1] was 5200 ng·h/mL. The same compound yielded an IC50 in data set [2] of 2.6 nM.
With `O=C(/C=C/c1cccnc1)NCCCCC1CCN(C(=O)c2ccccc2)CC1` [FK866, (E)-N-[4-(1-benzoylpiperidin-4-yl)butyl]-3-(pyridin-3-yl)acrylamide, reference compound], in data set [1], the CL is on record as 9.6 mL/h, the “Percentage of extrapolated AUC” value is reported as 1.2%, the T1/2α is 27.6 min and the T1/2β came to 229 min. Further, in data set [1], the Cmax was found to be 28100 ng/mL, the Tmax is 10 min, the AUC(0-inf) was 20800 ng·h/mL and the AUC(0-t) was determined as 20700 ng·h/mL. The compound further yielded an IC50 in data set [2] of 18.4 nM.
On to `O=C(/C=C/c1cccnc1F)NCCCCC1CCN(C(=O)c2cccs2)CC1` [MPM-07], for which, in data set [1], the CL is 38.5 mL/h, the “Percentage of extrapolated AUC” value was 2.0%, the T1/2α was found to be 21.6 min and the T1/2β amounted to 1535 min. In addition, in data set [1], the “half-lives in the second phase (6 h→24 h) compared with FK866” value was “improved and longer half-lives”; the highest concentration (Cmax) came out at 13200 ng/mL; the Tmax worked out at 10 min; the AUC(0-inf) was 5200 ng·h/mL. Further, the AUC(0-t) in data set [1] came out at 5110 ng·h/mL. This compound returned a concentration for half-maximal inhibition (IC50) in data set [2] of 1.5 nM.
